These results are taken from patent US12492210B2, “Tricyclic compounds and their use” (HUTCHISON MEDIPHARMA LIMITED, priority 2019, dated 2025).

Where only a bound is given, the exact number is not on record here.

As usually defined, the IC50 is the concentration at which inhibition is half-maximal.

The test system of assay [1] is p-RSK (Thr359) in colo205 cells. The assay can be described thus: p-RSK (Thr359) Acumen Assay in Colo205. In kind it is cell-based. Conditions: Homo sapiens, COLO 205, 1 hour compound incubation, read-out: Example 19 IC50. In short, it runs like this: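 Colo205 cells (4000/well, seeded overnight in 10% FBS) were exposed 1 hour at 37° C to compound added from a 3–0.001 μM dilution series in 5% DMSO. Cells were then fixed, permeabilised and immunostained for p-RSK Thr359, with PI counterstain. Acumen cytometry gave the percentage of positive cells, normalised to untreated wells and 3 uM GDC0994 wells, for the IC50 fit.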

In assay [2] the target is T1, MAPK1(ERK2) enzyme (Homo sapiens, UniProt P28482).
T1 construct: purchased Invitrogen PV3313
The assay can be described thus: Z-Lyte Kinase Assay of ERK2. Particulars: read-out: Example 18 IC50. In kind it is biochemical. In short, it runs like this: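 FRET-based Z-LYTE assay using ERK2 kinase with Ser/Thr3 peptide; compound tested at 0.00046–1 μM final in 2% DMSO. Kinase reaction ran 1 h at 25-30° C, followed by 1 h development. The coumarin/fluorescein emission ratio (445/520 nm) gave % phosphorylation, and IC50 was fitted from inhibition relative to uninhibited control.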

T1 sequence (P28482 whole entry): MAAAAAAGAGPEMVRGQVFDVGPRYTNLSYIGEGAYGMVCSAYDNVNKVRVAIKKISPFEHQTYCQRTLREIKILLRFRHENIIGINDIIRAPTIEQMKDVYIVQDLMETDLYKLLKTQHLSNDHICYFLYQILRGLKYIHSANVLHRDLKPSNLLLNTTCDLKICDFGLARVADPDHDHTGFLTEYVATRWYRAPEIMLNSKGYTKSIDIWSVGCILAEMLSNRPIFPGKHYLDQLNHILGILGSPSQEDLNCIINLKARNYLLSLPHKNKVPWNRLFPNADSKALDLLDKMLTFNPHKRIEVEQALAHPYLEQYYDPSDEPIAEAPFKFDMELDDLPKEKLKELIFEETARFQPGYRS

With `CC(C)Nc1cc(-c2cc3n(c2)CCCn2c-3nnc2C2(C(F)(F)F)CCC2)c(Cl)cn1` [Compound 230], the IC50 was over 0.1 µM in assay [1] and 0.005 to 0.01 µM in assay [2].

On to `Cc1cnc(Nc2ccnn2C)nc1-c1cc2n(c1)C[C@H](CF)n1c-2nnc1C(F)(F)n1cc(Cl)cn1` [Compound 156], for which the results for the IC50 in assay [1] and in assay [2] were at most 0.1 µM and at most 0.005 µM, respectively.

Consider `Cn1nccc1Nc1nccc(-c2cc3n(c2)CCCn2c(COc4ccccc4F)nnc2-3)n1` [Compound 37], for which the IC50 in assay [1] is at most 0.1 µM; in assay [2] it was at most 0.005 µM.

For the compound `Cc1cnc(Nc2ccnn2C)cc1-c1cc2n(c1)CC(C)Cn1c-2nnc1C(F)(F)C(F)F` (stereo not drawn) [Compound 60], the IC50 was at most 0.1 µM in assay [1] and at most 0.005 µM in assay [2].

For `Cc1cnc(Nc2c(F)cnn2C)nc1-c1cc2n(c1)C[C@H](C)n1c-2nnc1C(F)(F)c1ccccc1F` [Compound 290], the IC50 in assay [1] was over 0.1 µM; in assay [2], 0.005 to 0.01 µM.

On to `Cc1cnc(Nc2ccnn2C)nc1-c1cc2n(c1)C[C@H](CF)n1c-2nnc1C(F)(F)c1ccc(F)cc1F` [Compound 188], for which the IC50 in assay [1] was at most 0.1 µM; in assay [2], 0.005 to 0.01 µM.

`Cn1nccc1Nc1nccc(-c2cn3c(c2Cl)-c2nnc(COc4ccccc4F)n2CCC3)n1` [Compound 257]: the IC50 in assay [1] is at most 0.1 µM; in assay [2], 0.005 to 0.01 µM.

For `Cc1cnc(Nc2ccnn2C)cc1-c1cc2n(c1)C[C@H](CF)n1c-2nnc1C(F)(F)n1cc(Cl)cn1` [Compound 153], the IC50 was at most 0.1 µM in assay [1] and at most 0.005 µM in assay [2].

Regarding `Cc1nonc1C(F)(F)c1nnc2n1[C@@H](C)Cn1cc(-c3cc(Nc4ccnn4C)ncc3Cl)cc1-2` [Compound 103], the IC50 was at most 0.1 µM in assay [1] and 0.005 to 0.01 µM in assay [2].

For the compound `Cn1nccc1Nc1cc(-c2cc3n(c2)CCCn2c-3nnc2C2(C(F)(F)F)CCC2)c(Cl)cn1` [Compound 30], the IC50 in assay [1] was at most 0.1 µM; in assay [2], at most 0.005 µM.

As for `Cn1nccc1Nc1cc(-c2cc3n(c2)C[C@H](CF)n2c-3nnc2C(F)(F)n2cc(Cl)cn2)c(Cl)cn1` [Compound 200], the IC50 in assay [1] was at most 0.1 µM; in assay [2], 0.005 to 0.01 µM.

In the case of `Cc1cnc(Nc2ccnn2C)cc1-c1cc2n(c1)CC(F)(F)Cn1c-2nnc1C1(C(F)(F)F)CC1` [Compound 87], the IC50 is at most 0.1 µM in assay [1] and at most 0.005 µM in assay [2].

On to `Cn1nccc1Nc1cc(-c2cc3n(c2)CCCn2c-3nnc2C(F)(F)c2ccccc2Cl)c(Cl)cn1` [Compound 35], for which the IC50 in assay [1] is at most 0.1 µM; in assay [2], over 0.01 µM.

For `Cn1nccc1Nc1cc(-c2cc3n(c2)CC2(CC2)Cn2c-3nnc2C2(C(F)(F)F)CCC2)c(Cl)cn1` [Compound 268], the IC50 in assay [1] is at most 0.1 µM; in assay [2] it was at most 0.005 µM.

In the case of `C[C@H]1Cn2cc(-c3cc(Nc4ccnn4C)ncc3Cl)cc2-c2nnc(C3(C(F)(F)F)CCC3)n21` [Compound 256], the figures for the IC50 in assay [1] and in assay [2] were at most 0.1 µM and at most 0.005 µM, respectively.

For the compound `FC[C@H]1Cn2cc(-c3cc(NN4CCOCC4)ncc3Cl)cc2-c2nnc(C(F)(F)c3ccccc3F)n21` [Compound 274], the figures for the IC50 in assay [1] and in assay [2] were at most 0.1 µM and over 0.01 µM, respectively.

Take `Cc1cnc(Nc2ccnn2C)cc1-c1cc2n(c1)CC(F)(F)Cn1c-2nnc1C(F)(F)C(F)F` [Compound 78]: the figures for the IC50 in assay [1] and in assay [2] were at most 0.1 µM and at most 0.005 µM, respectively.

Take `Cn1nccc1Nc1cc(-c2cc3n(c2)C[C@H](CF)n2c-3nnc2C(F)(F)c2ncccc2Cl)c(Cl)cn1` [Compound 207]: the IC50 in assay [1] was at most 0.1 µM; in assay [2], at most 0.005 µM.

Consider `Cn1nccc1Nc1cc(-c2cc3n(c2)C[C@H](CF)n2c-3nnc2C(F)(F)c2ccccc2Cl)ccn1` [Compound 138], for which the values for the IC50 in assay [1] and in assay [2] were at most 0.1 µM and 0.005 to 0.01 µM, respectively.

On to `Cc1cnc(Nc2ccnn2C)cc1-c1cc2n(c1)CC1(CCC1)n1c-2nnc1C(F)(F)C(F)F` [Compound 242], for which the IC50 was over 0.1 µM in assay [1] and 0.005 to 0.01 µM in assay [2].

Turning to `Cn1nccc1Nc1cc(-c2cc3n(c2)C[C@H](F)Cn2c-3nnc2C(F)(F)C(F)F)c(Cl)cn1` [Compound 80], the results for the IC50 in assay [1] and in assay [2] were at most 0.1 µM and at most 0.005 µM, respectively.

For `Cn1nccc1Nc1cc(-c2cc3n(c2)CCCn2c(COC(F)(F)F)nnc2-3)c(Cl)cn1` [Compound 11], the IC50 in assay [1] is at most 0.1 µM; in assay [2], at most 0.005 µM.

On to `Cc1cnc(Nc2ccnn2C)cc1-c1cc2n(c1)CC(C)(F)Cn1c-2nnc1C(F)(F)C(F)F` (stereo not drawn) [Compound 72], for which the IC50 was at most 0.1 µM in assay [1] and 0.005 to 0.01 µM in assay [2].

As to `Cc1cnc(Nc2ccnn2C)cc1-c1cc2n(c1)C[C@H](C)n1c-2nnc1C(F)(F)c1ccccc1Cl` [Compound 118], the IC50 is at most 0.1 µM in assay [1] and over 0.01 µM in assay [2].

Regarding `Cn1nccc1Nc1cc(-c2cc3n(c2)CC(F)(F)Cn2c-3nnc2C2(C(F)F)CCC2)c(Cl)cn1` [Compound 266], the values for the IC50 in assay [1] and in assay [2] were at most 0.1 µM and at most 0.005 µM, respectively.

Consider `Cn1nccc1Nc1nccc(-c2cc3n(c2)CCCn2c(Cc4ccccc4Cl)nnc2-3)n1` [Compound 8], for which the IC50 is over 0.1 µM in assay [1] and at most 0.005 µM in assay [2].

As for `Cc1cnc(Nc2ccnn2C)cc1-c1cc2n(c1)C[C@H](CF)n1c-2nnc1C(F)(F)n1ccc(F)n1` [Compound 104], the IC50 is at most 0.1 µM in assay [1] and at most 0.005 µM in assay [2].

Consider `Cc1cnc(Nc2ccnn2C)nc1-c1cc2n(c1)C[C@H](C)n1c-2nnc1C1(C(F)(F)F)CCC1` [Compound 238], for which the IC50 was over 0.1 µM in assay [1] and at most 0.005 µM in assay [2].

For the compound `Cn1nccc1Nc1cc(-c2cc3n(c2)C[C@H](CF)n2c-3nnc2C(F)(F)c2ccccc2Cl)c(Cl)cn1` [Compound 206], the IC50 was at most 0.1 µM in assay [1] and over 0.01 µM in assay [2].

`Cn1nccc1Nc1cc(-c2cc3n(c2)CCCn2c-3nnc2[C@](C)(O)C(F)(F)F)c(Cl)cn1` [Compound 26]: the IC50 was at most 0.1 µM in assay [1] and at most 0.005 µM in assay [2].

Take `Cc1cnc(Nc2ccnn2C)cc1-c1cc2n(c1)C[C@H](C(F)F)n1c-2nnc1C(F)(F)n1cc(Cl)cn1` [Compound 198]: the values for the IC50 in assay [1] and in assay [2] were at most 0.1 µM and at most 0.005 µM, respectively.

For the compound `Cc1cnc(Nc2ccnn2C)cc1-c1cc2n(c1)C[C@H](C(F)F)n1c-2nnc1C(F)(F)c1ccccc1F` [Compound 179], the IC50 in assay [1] is at most 0.1 µM; in assay [2], over 0.01 µM.

Consider `Cc1cnc(Nc2ccnn2C)cc1-c1cc2n(c1)[C@H]1CC[C@H](C1)n1c-2nnc1C(F)(F)C(F)F` [Compound 67], for which the IC50 in assay [1] is at most 0.1 µM; in assay [2], at most 0.005 µM.

Turning to `Cc1cnc(Nc2ccnn2C)cc1-c1cc2n(c1)CC(F)(F)Cn1c-2nnc1C1(C(F)F)CC(F)(F)C1` [Compound 169], the figures for the IC50 in assay [1] and in assay [2] were at most 0.1 µM and at most 0.005 µM, respectively.

Consider `Cn1nccc1Nc1nccc(-c2cn3c(c2F)-c2nnc(C4(C(F)(F)F)CCC4)n2CCC3)n1` [Compound 243], for which the IC50 was over 0.1 µM in assay [1] and at most 0.005 µM in assay [2].

In the case of `Cn1nccc1Nc1cc(-c2cc3n(c2)C[C@H](F)Cn2c-3nnc2C(F)(F)n2cc(F)cn2)c(Cl)cn1` [Compound 162], the IC50 in assay [1] is at most 0.1 µM; in assay [2], 0.005 to 0.01 µM.
